Measured values published in ChEMBL document CHEMBL4828715, “Discovery, Structure-Activity Relationships, and In Vivo Evaluation of Novel Aryl Amides as Brain Penetrant Adaptor Protein 2-Associated Kinase 1 (AAK1) Inhibitors for the Treatment of Neuropathic Pain” (J Med Chem, 2021).
≈ marks a conversion by molar mass, not a printed value. Calls of active or inactive are those of the source. The rule behind the calls is not given here.

Tests used:
[1] = target: Dual specificity protein kinase CLK4 (Homo sapiens, UniProt Q9HAZ1); assay: Inhibition of wild-type human partial length CLK4 (R135 to K481 residues) expressed in bacterial expression system by Kinomescan method
[2] = Drug concentration in Sprague-Dawley rat plasma at 60 mg/kg, sc measured after 190 mins; format: ADME, organism-based
[3] = target: Mu-type opioid receptor (Homo sapiens, UniProt P35372); assay: Inhibition of mu opioid receptor (unknown origin)
[4] = target: SRSF protein kinase 1 (Homo sapiens) (UniProt Q96SB4); assay: Inhibition of wild-type human full length SRPK1 (M1 to S655 residues) expressed in bacterial expression system assessed as residual binding level at 1 uM by Kinomescan method relative to control
SRSF protein kinase 1 (Homo sapiens), sequence (Q96SB4 whole entry, the tested form may be a part): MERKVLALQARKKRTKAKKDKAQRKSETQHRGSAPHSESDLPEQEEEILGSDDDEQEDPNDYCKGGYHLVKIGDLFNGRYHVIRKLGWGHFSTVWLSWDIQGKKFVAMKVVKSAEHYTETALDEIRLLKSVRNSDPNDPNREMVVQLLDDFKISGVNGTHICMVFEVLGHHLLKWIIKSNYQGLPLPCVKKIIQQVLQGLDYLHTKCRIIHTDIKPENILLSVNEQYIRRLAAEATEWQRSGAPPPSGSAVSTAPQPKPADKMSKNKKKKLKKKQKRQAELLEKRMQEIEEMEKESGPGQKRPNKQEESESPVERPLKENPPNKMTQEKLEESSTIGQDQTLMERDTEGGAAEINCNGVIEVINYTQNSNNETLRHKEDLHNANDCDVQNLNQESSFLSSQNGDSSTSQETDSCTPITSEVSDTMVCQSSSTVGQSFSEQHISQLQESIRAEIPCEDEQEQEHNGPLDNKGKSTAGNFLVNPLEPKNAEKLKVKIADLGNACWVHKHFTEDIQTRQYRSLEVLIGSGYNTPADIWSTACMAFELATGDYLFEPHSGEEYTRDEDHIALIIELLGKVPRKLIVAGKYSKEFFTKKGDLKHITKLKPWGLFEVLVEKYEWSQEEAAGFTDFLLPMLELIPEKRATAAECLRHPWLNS

[5] = Drug concentration in plasma of Sprague-Dawley rat model of chronic constriction injury-induced neuropathic pain at 3 mg/kg, sc; format: ADME, organism-based; conditions: in vivo
[6] = Unbound brain-to-plasma concentration ratio in C57BL6 mouse at 30 mg/kg, sc; format: ADME, organism-based; conditions: read-out: K(p,uu,brain)
[7] = target: G protein-coupled receptor kinase 4 (Homo sapiens) (UniProt P32298); assay: Inhibition of wild-type human full length GRK4 (M1 to C578 residues) expressed in bacterial expression system assessed as residual binding level at 1 uM by Kinomescan method relative to control
G protein-coupled receptor kinase 4 (Homo sapiens), sequence (P32298 whole entry, looked up, the tested form may be a part): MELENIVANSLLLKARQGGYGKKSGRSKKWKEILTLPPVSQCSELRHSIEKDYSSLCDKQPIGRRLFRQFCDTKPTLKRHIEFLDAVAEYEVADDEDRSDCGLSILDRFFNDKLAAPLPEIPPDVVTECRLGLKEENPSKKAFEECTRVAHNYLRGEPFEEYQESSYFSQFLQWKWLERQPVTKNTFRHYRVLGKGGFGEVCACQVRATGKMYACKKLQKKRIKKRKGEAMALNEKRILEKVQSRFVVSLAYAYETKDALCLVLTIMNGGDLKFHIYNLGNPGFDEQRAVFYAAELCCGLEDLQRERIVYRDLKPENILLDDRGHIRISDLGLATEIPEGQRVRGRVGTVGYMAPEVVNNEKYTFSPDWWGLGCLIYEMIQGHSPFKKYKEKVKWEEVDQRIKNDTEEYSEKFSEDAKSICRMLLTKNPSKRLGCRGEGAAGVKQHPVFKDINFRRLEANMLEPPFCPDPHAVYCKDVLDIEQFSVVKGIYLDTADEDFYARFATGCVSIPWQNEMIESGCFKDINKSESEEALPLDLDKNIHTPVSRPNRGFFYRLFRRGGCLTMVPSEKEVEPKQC

[8] = Unbound drug concentration in plasma of Sprague-Dawley rat model of chronic constriction injury-induced neuropathic pain at 1 mg/kg, sc; format: ADME, organism-based; conditions: in vivo
[9] = target: AP2-associated protein kinase 1 (Mus musculus, UniProt Q3UHJ0); assay: In vivo inhibition of AAK1 in C57BL6 mouse assessed as suppression of mu2 phosphorylation in brain lysate by Western blot analysis; format: functional, organism-based
AP2-associated protein kinase 1, sequence (Q3UHJ0 whole entry, the tested form may be a part): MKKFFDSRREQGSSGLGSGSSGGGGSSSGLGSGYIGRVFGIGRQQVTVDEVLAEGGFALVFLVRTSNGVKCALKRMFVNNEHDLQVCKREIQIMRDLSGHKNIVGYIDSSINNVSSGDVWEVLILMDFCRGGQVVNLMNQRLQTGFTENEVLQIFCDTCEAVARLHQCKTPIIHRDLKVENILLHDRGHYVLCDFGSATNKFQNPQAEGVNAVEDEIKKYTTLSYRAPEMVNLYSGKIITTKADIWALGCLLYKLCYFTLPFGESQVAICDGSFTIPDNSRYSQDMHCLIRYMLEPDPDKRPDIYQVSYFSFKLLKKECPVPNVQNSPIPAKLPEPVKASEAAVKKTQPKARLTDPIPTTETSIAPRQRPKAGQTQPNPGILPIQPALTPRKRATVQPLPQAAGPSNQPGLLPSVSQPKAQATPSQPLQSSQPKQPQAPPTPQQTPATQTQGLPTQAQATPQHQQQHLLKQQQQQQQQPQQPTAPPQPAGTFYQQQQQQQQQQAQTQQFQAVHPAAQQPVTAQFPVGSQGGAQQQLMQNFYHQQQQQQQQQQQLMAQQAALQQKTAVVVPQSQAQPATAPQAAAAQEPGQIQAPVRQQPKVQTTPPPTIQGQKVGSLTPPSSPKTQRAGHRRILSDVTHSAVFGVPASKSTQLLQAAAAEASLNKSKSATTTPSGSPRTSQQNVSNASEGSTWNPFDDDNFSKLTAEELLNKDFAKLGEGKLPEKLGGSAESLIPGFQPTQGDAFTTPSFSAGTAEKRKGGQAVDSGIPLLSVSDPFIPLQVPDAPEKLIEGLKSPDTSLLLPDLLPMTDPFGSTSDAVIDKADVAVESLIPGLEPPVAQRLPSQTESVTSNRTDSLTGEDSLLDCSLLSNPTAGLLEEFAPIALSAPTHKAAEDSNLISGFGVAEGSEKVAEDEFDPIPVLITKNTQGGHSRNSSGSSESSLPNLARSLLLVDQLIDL

[10] = target: Serine/threonine-protein kinase RIO1 (Homo sapiens) (UniProt Q9BRS2); assay: Inhibition of wild-type human full length RIOK1 (M1 to K568 residues) expressed in bacterial expression system assessed as residual binding level at 1 uM by Kinomescan method relative to control
[11] = test system: Rattus norvegicus; assay: Antinociceptive activity in Sprague-Dawley rat model of chronic constriction injury-induced neuropathic pain assessed as reduction in paw withdrawal latency at 60 mg/kg, sc by Von Frey test; format: functional, organism-based
[12] = Aqueous solubility of the compound at pH 1; format: physicochemical
[13] = test system: Rattus norvegicus; assay: Antinociceptive activity in Sprague-Dawley rat model of chronic constriction injury-induced neuropathic pain assessed as reduction in thermal hyperalgesia 60 mg/kg, sc by Von Frey test relative to control; format: functional; parameters: scale not given: the % may be the effect or the level left
[14] = target: Phosphatidylinositol 5-phosphate 4-kinase type-2 beta (Homo sapiens) (UniProt P78356); assay: Inhibition of wild-type human full length PIP5K2B (M1 to T416 residues) expressed in bacterial expression system assessed as residual binding level at 1 uM by Kinomescan method relative to control
Phosphatidylinositol 5-phosphate 4-kinase type-2 beta (Homo sapiens), sequence (P78356 whole entry, the tested form may be a part): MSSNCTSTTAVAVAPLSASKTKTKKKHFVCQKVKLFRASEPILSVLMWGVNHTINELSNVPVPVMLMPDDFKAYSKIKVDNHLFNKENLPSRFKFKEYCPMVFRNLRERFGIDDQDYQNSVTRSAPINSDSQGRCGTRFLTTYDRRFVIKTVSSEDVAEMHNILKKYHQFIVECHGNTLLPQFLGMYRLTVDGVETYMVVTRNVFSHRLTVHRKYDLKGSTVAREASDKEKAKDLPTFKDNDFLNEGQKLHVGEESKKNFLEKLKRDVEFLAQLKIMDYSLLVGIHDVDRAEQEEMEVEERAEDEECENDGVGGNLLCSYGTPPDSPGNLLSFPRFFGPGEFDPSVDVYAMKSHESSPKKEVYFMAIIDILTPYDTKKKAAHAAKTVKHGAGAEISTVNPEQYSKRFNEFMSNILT

[15] = Drug concentration in Sprague-Dawley rat plasma at 30 mg/kg, sc measured after 190 mins; format: ADME, organism-based
[16] = target: AP2-associated protein kinase 1 (Mus musculus) (UniProt Q3UHJ0); assay: In vivo inhibition of AAK1 in C57BL6 mouse assessed as suppression of mu2 phosphorylation in brain lysate at 60 mg/kg, sc measured after 30 mins by Western blot analysis relative to control; format: functional, organism-based
AP2-associated protein kinase 1 (Mus musculus), sequence (Q3UHJ0 whole entry, looked up): as the sequence (Q3UHJ0 whole entry, the tested form may be a part) above

[17] = target: AP2-associated protein kinase 1 (Mus musculus) (UniProt Q3UHJ0); assay: In vivo inhibition of AAK1 in C57BL6 mouse assessed as suppression of mu2 phosphorylation in brain lysate at 30 mg/kg, sc measured after 2 hrs by Western blot analysis; format: functional, organism-based
[18] = Inhibition of PKA (unknown origin); parameters: species or system Homo sapiens
[19] = target: Cyclin-G-associated kinase (Homo sapiens, UniProt O14976); assay: Inhibition of wild-type human partial length GAK (G13 to Y338 residues) expressed in bacterial expression system by Kinomescan method
Cyclin-G-associated kinase, sequence (O14976 whole entry, the tested form may be a part): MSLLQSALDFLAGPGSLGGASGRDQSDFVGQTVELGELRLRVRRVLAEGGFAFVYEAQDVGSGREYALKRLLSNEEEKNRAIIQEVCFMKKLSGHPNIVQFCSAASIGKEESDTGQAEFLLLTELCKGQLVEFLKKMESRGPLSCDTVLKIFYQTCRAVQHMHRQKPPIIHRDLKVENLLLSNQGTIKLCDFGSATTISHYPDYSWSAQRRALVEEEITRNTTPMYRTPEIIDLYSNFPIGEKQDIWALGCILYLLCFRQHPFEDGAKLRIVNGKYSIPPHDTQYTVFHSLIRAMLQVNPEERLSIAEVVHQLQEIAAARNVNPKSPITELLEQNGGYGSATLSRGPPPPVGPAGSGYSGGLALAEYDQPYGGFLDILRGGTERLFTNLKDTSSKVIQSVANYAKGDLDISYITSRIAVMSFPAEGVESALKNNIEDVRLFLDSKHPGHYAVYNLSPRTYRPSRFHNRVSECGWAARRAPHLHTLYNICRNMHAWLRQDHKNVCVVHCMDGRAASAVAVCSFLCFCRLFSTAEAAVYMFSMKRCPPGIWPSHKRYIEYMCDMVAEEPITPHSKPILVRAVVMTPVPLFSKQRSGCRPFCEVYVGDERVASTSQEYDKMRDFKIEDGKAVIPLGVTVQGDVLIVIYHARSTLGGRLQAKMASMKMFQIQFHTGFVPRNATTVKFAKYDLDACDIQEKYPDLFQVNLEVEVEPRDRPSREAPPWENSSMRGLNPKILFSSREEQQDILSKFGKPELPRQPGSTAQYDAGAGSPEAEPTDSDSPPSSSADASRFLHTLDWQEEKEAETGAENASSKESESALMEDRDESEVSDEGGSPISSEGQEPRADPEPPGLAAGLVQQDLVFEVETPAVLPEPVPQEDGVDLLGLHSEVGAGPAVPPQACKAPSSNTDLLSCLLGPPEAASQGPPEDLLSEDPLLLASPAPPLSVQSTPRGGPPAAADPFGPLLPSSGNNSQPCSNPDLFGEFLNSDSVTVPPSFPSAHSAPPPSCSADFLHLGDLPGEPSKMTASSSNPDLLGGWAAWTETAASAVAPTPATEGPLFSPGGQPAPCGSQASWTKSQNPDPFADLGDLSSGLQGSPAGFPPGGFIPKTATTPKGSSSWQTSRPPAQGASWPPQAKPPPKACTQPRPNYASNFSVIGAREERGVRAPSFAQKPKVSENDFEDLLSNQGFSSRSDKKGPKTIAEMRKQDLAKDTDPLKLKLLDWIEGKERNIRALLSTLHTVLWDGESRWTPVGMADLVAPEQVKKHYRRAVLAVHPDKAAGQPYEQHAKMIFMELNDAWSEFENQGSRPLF

[20] = Metabolic stability in mouse liver microsomes assessed as parent compound remaining at 0.5 uM incubated for 10 mins in presence of NADPH by LC-MS/MS analysis; format: ADME, Microsome; conditions: read-out: Stability
[21] = test system: Rattus norvegicus; assay: Antinociceptive activity in Sprague-Dawley rat model of chronic constriction injury-induced neuropathic pain assessed as reduction in thermal hyperalgesia 30 mg/kg, sc by Von Frey test relative to control; format: functional; parameters: scale not given: the % may be the effect or the level left

Work on CC(C)C[C@@H](N)C(=O)Nc1ccc(-c2cnco2)c(OC(F)F)c1 yielded an IC50 [1] of 1930 nM, a concentration at 3.167 h [2] of 84 µM and an IC50 [3] greater than 30000 nM. It also gave an Activity [4] of 12%, a concentration [5] of 1.1 µM and a Kp uu [6] of 0.71. For the same compound, the Activity [7] was 13%, the “Cp(f)” value [8] was 0.01 µM and the EC50 [9] was 8300 nM. For the same compound, the Activity [10] was 7.6%, the Activity [11] was “Active” and the solubility [12] was 5850 µg/mL (≈ 17.2 mM). It also gave an Activity [13] of 113%, an Activity [14] of 6.2% and a concentration at 3.167 h [15] of 3.4 µM. For the same compound, the inhibition [16] was 80%, the inhibition [17] was “Active” and the IC50 [18] was 570 nM. For the same compound, the IC50 [19] was 1060 nM, the remaining at 10 min, 0.5 µM [20] was 46% and the Activity [21] was 90%.
